Values of other authors, collected in patent US20120213707A1, “Riboflavin Based Aerosol and Use as Placebo in Trials” (MPEX PHARMACEUTICALS, INC., priority 2009, published 2012).

Test system: men and women with a history of recurrent migraine headaches
Conditions: cited from earlier work

## Cc1cc2nc3c(=O)[nH]c(=O)nc-3n(C[C@H](O)[C@H](O)[C@H](O)CO)c2cc1C [riboflavin]
400 mg of riboflavin daily for three months, 23 patients, Boehnke 2004
  median migraine attack frequency: reduction in median migraine attack frequency
400 mg of riboflavin/day for three months, 54 men and women, Schoenen 1998
  migraine attack frequency and number of headache days versus placebo: significantly better than placebo
high-dose riboflavin, Sandor 2000
  clinical outcome in migraine: clinical improvement
